Measurements taken from patent US9302999B2, “Substituted triazoles as herbicides” (E. I. DU PONT DE NEMOURS AND COMPANY, priority 2012, dated 2016).

Key:
Type in all cases: in vivo
[1] = system: ragweed (common ragweed, Ambrosia elatior); assay: Test F pre-/postemergence: ragweed; details: Preemergence
In short: (§1)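 0–100 visual control scores, taken 14–21 d after application in the greenhouse. Preemergence treatment was made to silt loam soil at sowing. Postemergence sprays hit 1- to 4-leaf plants (2–18 cm) in peat/vermiculite mix. Surfactant-containing non-phytotoxic solvent served as the vehicle.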

[2] = system: crabgrass, large (large crabgrass, Digitaria sanguinalis); assay: Test F pre-/postemergence: crabgrass, large; details: Preemergence
In short: as §1

[3] = system: deadnettle (henbit deadnettle, Lamium amplexicaule); assay: Test D pre-/postemergence: deadnettle
In short: (§2)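 Scores run from 0 (no effect) to 100 (complete control), assigned by visual comparison with controls after 14 to 21 days in a controlled environment. Both preemergence application to silt loam and postemergence application to 1- to 4-leaf plants were tested.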

[4] = system: surinam grass (Brachiaria decumbens); assay: Test F pre-/postemergence: surinam grass; details: Preemergence
In short: as §1

[5] = system: johnsongrass (Sorghum halepense); assay: Test F pre-/postemergence: johnsongrass; details: Preemergence
In short: as §1

[6] = system: chamomile (scentless chamomile, Matricaria inodora); assay: Test D pre-/postemergence: chamomile
In short: as §2

[7] = system: bromegrass, downy (downy bromegrass, Bromus tectorum); assay: Test D pre-/postemergence: bromegrass, downy
In short: as §2

[8] = 8 g ai/ha, scale 0 to 100, 0 no effect, 100 complete control
[9] = 16 g ai/ha, scale 0 to 100, 0 no effect, 100 complete control
[10] = 31 g ai/ha, scale 0 to 100, 0 no effect, 100 complete control
[11] = Postemergence, 31 g ai/ha, scale 0 to 100 (0 no effect, 100 complete control)
[12] = Postemergence, 62 g ai/ha, scale 0 to 100 (0 no effect, 100 complete control)
[13] = Postemergence, 125 g ai/ha, scale 0 to 100, 0 no effect, 100 complete control
[14] = Postemergence, 16 g ai/ha, scale 0 to 100
[15] = Preemergence, 16 g ai/ha, scale 0 to 100, 0 no effect, 100 complete control
[16] = Preemergence, 31 g ai/ha, scale 0 to 100, 0 no effect, 100 complete control
[17] = Preemergence, 62 g ai/ha, scale 0 to 100
[18] = Preemergence, 125 g ai/ha, scale 0 to 100

CCOc1nn(-c2ccc(F)cc2)nc1Cc1ccnc(C(F)(F)F)c1 [Compound 196, 4-[[5-ethoxy-2-(4-fluorophenyl)-2H-1,2,3-triazol-4-yl]methyl]-2-(trifluoromethyl)pyridine]
Plant response rating, Ragweed [1, 8]: 0 | Plant response rating, Ragweed [1, 9]: 0 | Plant response rating, Ragweed [1, 10]: 0 | Plant response rating, Ragweed ([1]; 125 g ai/ha, scale 0 to 100): 50 | Plant response rating, Crabgrass, Large [2, 9]: 75 | Plant response rating, Crabgrass, Large [2, 10]: 100 | Plant response rating, Crabgrass, Large ([2]; 62 g ai/ha, scale 0 to 100): 100 | Plant response rating, Crabgrass, Large ([2]; 125 g ai/ha, scale 0 to 100): 100 | Plant response rating: Deadnettle [3, 11]: 100 | Plant response rating: Deadnettle [3, 12]: 100 | Plant response rating: Deadnettle [3, 13]: 100 | Plant response rating, Deadnettle [3, 14]: 85 | Plant response rating, Deadnettle [3, 15]: 10 | Plant response rating, Deadnettle [3, 16]: 40 | Plant response rating, Deadnettle [3, 17]: 100 | Plant response rating, Deadnettle [3, 18]: 100 | Plant response rating, Surinam Grass [4, 8]: 0 | Plant response rating, Surinam Grass [4, 10]: 15 | Plant response rating, Surinam Grass ([4]; 125 g ai/ha, scale 0 to 100): 100 | Plant response rating, Johnsongrass [5, 9]: 65 | Plant response rating, Johnsongrass [5, 10]: 65 | Plant response rating, Johnsongrass ([5]; 62 g ai/ha, scale 0 to 100): 95 | Plant response rating, Johnsongrass ([5]; 125 g ai/ha, scale 0 to 100): 98 | Plant response rating: Chamomile [6, 11]: 70 | Plant response rating: Chamomile [6, 12]: 75 | Plant response rating: Chamomile [6, 13]: 85 | Plant response rating, Chamomile [6, 14]: 60 | Plant response rating, Chamomile [6, 15]: 55 | Plant response rating, Chamomile [6, 16]: 85 | Plant response rating, Chamomile [6, 17]: 100 | Plant response rating, Chamomile [6, 18]: 100 | Plant response rating: Bromegrass, Downy [7, 11]: 35 | Plant response rating: Bromegrass, Downy [7, 12]: 50 | Plant response rating: Bromegrass, Downy [7, 13]: 65 | Plant response rating, Bromegrass, Downy [7, 14]: 15 | Plant response rating, Bromegrass, Downy [7, 15]: 5 | Plant response rating, Bromegrass, Downy [7, 16]: 15 | Plant response rating, Bromegrass, Downy [7, 17]: 70 | Plant response rating, Bromegrass, Downy [7, 18]: 90

Cc1nn(-c2ccc(C(F)(F)F)c(F)c2)nc1Oc1ccnc(C(F)(F)F)c1 [Compound 148]
Plant response rating, Ragweed [1, 9]: 0 | Plant response rating, Ragweed [1, 10]: 0 | Plant response rating, Ragweed ([1]; 125 g ai/ha, scale 0 to 100): 75 | Plant response rating, Ragweed ([1]; 250 g ai/ha, scale 0 to 100): 75 | Plant response rating, Crabgrass, Large [2, 9]: 95 | Plant response rating, Crabgrass, Large [2, 10]: 100 | Plant response rating, Crabgrass, Large ([2]; 62 g ai/ha, scale 0 to 100): 100 | Plant response rating, Crabgrass, Large ([2]; 125 g ai/ha, scale 0 to 100): 100 | Plant response rating, Crabgrass, Large ([2]; 250 g ai/ha, scale 0 to 100): 100 | Plant response rating: Deadnettle [3, 11]: 65 | Plant response rating: Deadnettle [3, 12]: 100 | Plant response rating: Deadnettle [3, 13]: 100 | Plant response rating, Deadnettle [3, 14]: 70 | Plant response rating, Deadnettle [3, 15]: 10 | Plant response rating, Deadnettle [3, 16]: 45 | Plant response rating, Deadnettle [3, 17]: 100 | Plant response rating, Deadnettle [3, 18]: 100 | Plant response rating, Surinam Grass [4, 9]: 25 | Plant response rating, Surinam Grass [4, 10]: 40 | Plant response rating, Surinam Grass ([4]; 125 g ai/ha, scale 0 to 100): 98 | Plant response rating, Surinam Grass ([4]; 250 g ai/ha, scale 0 to 100): 98 | Plant response rating, Johnsongrass [5, 9]: 0 | Plant response rating, Johnsongrass [5, 10]: 20 | Plant response rating, Johnsongrass ([5]; 62 g ai/ha, scale 0 to 100): 20 | Plant response rating, Johnsongrass ([5]; 125 g ai/ha, scale 0 to 100): 30 | Plant response rating, Johnsongrass ([5]; 250 g ai/ha, scale 0 to 100): 40 | Plant response rating: Chamomile [6, 11]: 70 | Plant response rating: Chamomile [6, 12]: 75 | Plant response rating: Chamomile [6, 13]: 95 | Plant response rating, Chamomile [6, 14]: 60 | Plant response rating, Chamomile [6, 15]: 10 | Plant response rating, Chamomile [6, 16]: 20 | Plant response rating, Chamomile [6, 17]: 70 | Plant response rating, Chamomile [6, 18]: 100 | Plant response rating: Bromegrass, Downy [7, 11]: 5 | Plant response rating: Bromegrass, Downy [7, 12]: 15 | Plant response rating: Bromegrass, Downy [7, 13]: 20 | Plant response rating, Bromegrass, Downy [7, 14]: 5 | Plant response rating, Bromegrass, Downy [7, 15]: 0 | Plant response rating, Bromegrass, Downy [7, 16]: 0 | Plant response rating, Bromegrass, Downy [7, 17]: 10 | Plant response rating, Bromegrass, Downy [7, 18]: 20

CCc1nn(-c2ccc(C(F)(F)F)cc2)nc1Cc1ccnc(C(F)(F)F)c1 [Compound 155]
Plant response rating, Ragweed ([1]; 125 g ai/ha, scale 0 to 100): 50 | Plant response rating, Ragweed ([1]; 250 g ai/ha, scale 0 to 100): 80 | Plant response rating, Crabgrass, Large ([2]; 62 g ai/ha, scale 0 to 100): 100 | Plant response rating, Crabgrass, Large ([2]; 125 g ai/ha, scale 0 to 100): 100 | Plant response rating, Crabgrass, Large ([2]; 250 g ai/ha, scale 0 to 100): 100 | Plant response rating: Deadnettle [3, 11]: 75 | Plant response rating: Deadnettle [3, 12]: 90 | Plant response rating: Deadnettle [3, 13]: 100 | Plant response rating, Deadnettle [3, 14]: 75 | Plant response rating, Deadnettle [3, 15]: 5 | Plant response rating, Deadnettle [3, 16]: 5 | Plant response rating, Deadnettle [3, 17]: 80 | Plant response rating, Deadnettle [3, 18]: 95 | Plant response rating, Surinam Grass ([4]; 125 g ai/ha, scale 0 to 100): 90 | Plant response rating, Surinam Grass ([4]; 250 g ai/ha, scale 0 to 100): 90 | Plant response rating, Johnsongrass ([5]; 62 g ai/ha, scale 0 to 100): 90 | Plant response rating, Johnsongrass ([5]; 125 g ai/ha, scale 0 to 100): 90 | Plant response rating, Johnsongrass ([5]; 250 g ai/ha, scale 0 to 100): 100 | Plant response rating: Chamomile [6, 11]: 70 | Plant response rating: Chamomile [6, 12]: 80 | Plant response rating: Chamomile [6, 13]: 85 | Plant response rating, Chamomile [6, 14]: 60 | Plant response rating, Chamomile [6, 15]: 5 | Plant response rating, Chamomile [6, 16]: 80 | Plant response rating, Chamomile [6, 17]: 95 | Plant response rating, Chamomile [6, 18]: 100 | Plant response rating: Bromegrass, Downy [7, 11]: 15 | Plant response rating: Bromegrass, Downy [7, 12]: 35 | Plant response rating: Bromegrass, Downy [7, 13]: 55 | Plant response rating, Bromegrass, Downy [7, 14]: 5 | Plant response rating, Bromegrass, Downy [7, 15]: 0 | Plant response rating, Bromegrass, Downy [7, 16]: 5 | Plant response rating, Bromegrass, Downy [7, 17]: 10 | Plant response rating, Bromegrass, Downy [7, 18]: 35
